Assay results reported in ChEMBL document CHEMBL5120792, “Nyuzenamide C, an Antiangiogenic Epoxy Cinnamic Acid-Containing Bicyclic Peptide from a Riverine Streptomyces sp” (J Nat Prod, 2022).

Key:
Hepa1c1c7 = test: Activation of QR in mouse Hepa1c1c7 cells assessed as increase in QR activity at 20 uM incubated for 24 hrs by NADPH-dependent menadiol-mediated reduction of MTT based assay relative to control; assay type: cell-based; settings: filed as activator
HUVEC = test: Antiangiogenic activity in HUVEC assessed as inhibition of VEGF-induced capillary tube formation incubated for 6 hrs by capillary tube formation assay; assay type: functional, cell-based; settings: Homo sapiens

Row | SMILES | fold change (FC) (Hepa1c1c7) | IC50 (HUVEC)
1 | CC(C)C[C@H]1NC(=O)[C@@H]2CCCN2C(=O)[C@H]([C@@H](O)c2ccccc2)NC(=O)CNC(=O)[C@H](C(C)C)NC(=O)[C@H]2NC(=O)[C@@H](NC(=O)/C=C/c3ccccc3[C@H]3O[C@@H]3C)[C@@H](C)OC(=O)[C@@H](CC(N)=O)NC(=O)[C@H](NC(=O)[C@H](O)NC1=O)[C@@H](O)c1ccc(O)c(c1)Oc1ccc2cc1 | 1.8 | 8.9 µM
2 | CCN(CC)CCNC(=O)c1c(C)[nH]c(/C=C2\C(=O)Nc3ccc(F)cc32)c1C [SUNITINIB] | – | 2.1 µM
